Measurements taken from patent US20230039836A1, “AROMATIC SULPHONAMIDES DERIVATIVES THAT INHIBITS PDI A3, THEIR SYNTHESIS AND USE” (Uniwersytet Jagiellonski, priority 2020, published 2023).
In brackets after ≈: the same amount, converted by molar mass. Like-named read-outs stand apart in the source and are kept apart here.

What was measured:
[1] = tested on: HT-29; test: Sulforhodamine B antiproliferative assay, 72 h; type: cell-based, human; details: normal (21% of oxygen), 72-hour exposition
Description: (§1) Anticancer activity of PDI A1-inhibitors has been also tested in vitro in antiproliferative essay in normoxic and hypoxic conditions as well in estrogen-stimulated cancer cells. In the experiment, cells were seeded on 96-well plates (Sarstedt, Germany) in appropriate culture medium at a density of 10^5 cells/mL 24 h before adding the tested compounds. Cells were treated with each compound in four concentrations in the range 0.1-100 ug/mL. […] After 72 h of compound treatment at 37° C., 5 % CO2 humid atmosphere and in wo different oxygen level conditions: 21% - normal and <1% - hypoxia. In some experiments, the MDA-MB-231 and MCF-7 cells were seeded with or without 200 nM estradiol and after 24 h the tested compounds were added. A previously described sulforhodamine B antiproliferative assay was used with minor modifications (Skehan P et al., 1990). Briefly, cells were fixed with 50 µL/well of 50% (w/v) trichloroacetic acid (Avantor Performance Materials, Gliwice, Poland). After 1 h incubation, plates were washed several times with tap water and 50 µL of 0.4% (w/v) solution of sulforhodamine B (Sigma-Aldrich, Germany) in 1% (v/v) acetic acid (Avantor Performance Materials, Gliwice, Poland) was added to each well. After 30 min incubation at room temperature, unbound dye was washed out with 1% (v/v) acetic acid, whereas bound dye was solubilized with 10 mM unbuffered TRIS (Avantor Performance Materials, Gliwice, Poland) solution. The entire procedure was performed using a BioTek EL-406 washing station (BioTek Instruments, USA). After additional 30 min, absorbance was read using a Biotek Hybrid H4 reader (BioTek Instruments, USA) at 540 nm wavelength. MTT assay was used alternatively for HL-60 cell line and in the experiment in which estrogens are added (specified in the table legend). Absorbance was measured using a Biotek Hybrid H4 reader at 570 nm wavelength for MTT assay.
(§2) Compounds at each concentration were tested in triplicate in a single experiment and each experiment was repeated at least three times independently.
(§3) Results of in vitro antiproliferative effects are shown in Table 3 and Table 4 and are presented as mean IC50 ± SD calculated using the Prolab-3 system based on Cheburator 0.4 software.

[2] = tested on: Caco-2; test: Sulforhodamine B antiproliferative assay, 72 h; type: cell-based, human; details: normal (21% of oxygen), 72-hour exposition
Description: In the experiment, cells were seeded on 96-well plates (Sarstedt, Germany) in appropriate culture medium at a density of 10^5 cells/mL 24 h before adding the tested compounds. Cells were treated with each compound in four concentrations in the range 0.1-100 ug/mL. […] Briefly, cells were fixed with 50 µL/well of 50% (w/v) trichloroacetic acid (Avantor Performance Materials, Gliwice, Poland). After 1 h incubation, plates were washed several times with tap water and 50 µL of 0.4% (w/v) solution of sulforhodamine B (Sigma-Aldrich, Germany) in 1% (v/v) acetic acid (Avantor Performance Materials, Gliwice, Poland) was added to each well. After 30 min incubation at room temperature, unbound dye was washed out with 1% (v/v) acetic acid, whereas bound dye was solubilized with 10 mM unbuffered TRIS (Avantor Performance Materials, Gliwice, Poland) solution. […] After additional 30 min, absorbance was read using a Biotek Hybrid H4 reader (BioTek Instruments, USA) at 540 nm wavelength.

[3] = tested on: MDA-MB-231; test: Sulforhodamine B antiproliferative assay, 72 h, normal and hypoxia; type: cell-based, human; details: 72-hour exposition; for IC50 [µg/ml] MDA-MB-231 hypoxia: hypoxia (<1% of oxygen); for IC50 [µg/ml] MDA-MB-231 normal: normal (21% of oxygen)
Description: as §1, §2, §3

[4] = tested on: MCF-7; test: as above; type: cell-based, human; details: 72-hour exposition; for IC50 [µg/ml] MCF-7 hypoxia: hypoxia (<1% of oxygen); for IC50 [µg/ml] MCF-7 normal: normal (21% of oxygen)
Description: as §1, §2, §3

[5] = tested on: MDA-MB-231; test: MTT antiproliferative assay, 72 h, with or without estradiol; type: cell-based, human; details: for IC50: Homo sapiens, MDA-MB-231, 72 hours exposition, MTT; for Change of antiproliferative activity towards MDA-MB-231 during simultaneous incubation with estradiol: with estradiol versus without
Description: as §1, §2, §3
(§4) Statistical analysis: Unpaired t test. *p<0.05 as compared to appropriate cells not pretreated with estradiol. MTT assay was used for antiproliferative activity assessment.

[6] = tested on: MCF-7; test: as above; type: cell-based, human; details: for Selectivity index (SI): IC50 of MCF-10A/ IC50 of MCF-7 / IC50: 72 hours exposition; for IC50: Homo sapiens, MCF7, MTT
Description: as §1, §2, §3, §4

[7] = tested on: HT-29; test: MTT antiproliferative assay, 72 h; type: cell-based; details: Homo sapiens, 72 hours exposition, read-out: IC50 [µg/ml] HT-29 normal
Description: as §1, §2, §3, §4

[8] = tested on: HL-60; test: MTT antiproliferative assay, 72 h; type: cell-based; details: Homo sapiens, 72 hours exposition, read-out: IC50 [µg/ml] HL-60 normal
Description: as §1, §2, §3, §4

[9] = tested on: MCF-7 (human breast adenocarcinoma, estrogen-positive); test: MTT antiproliferative assay, 48 h; type: cell-based; details: Homo sapiens, MCF7, 48-hour exposition, read-out: Cytotoxicity, IC50, µM MCF-7
Description: (§5) About 2000-4000 cells per well (depending on line nature) were placed in 96-well plates and after 24 h compounds were added to the wells. Untreated cells were used as a control. The plates were incubated for 48 h, 37° C., 5% CO2. The number of surviving cells was determined using 3-(4,5-dimethylthiazol-2-yl)-2,5-diphenyltetrazolinium bromide (MTT). MTT-test: after incubating culture medium was removed and 200 µL fresh medium with 20 µL MTT (2 mg/mL in HBSS) was added in each well of the plate. After incubation (3 hr., 37° C., 5% CO2), the medium with MTT was removed and 200 µL DMSO were added at once to each sample. The samples were tested at 540 nm on Thermo Scientific Multiskan EX microplate photometer. The half-maximal inhibitory concentration (IC50) of each compound was calculated using Graph Pad Prism® 3.0.

[10] = target: T1, PDI A1 (Homo sapiens, UniProt P07237); test: Insulin turbidometric assay, inhibition of PDI A1; type: biochemical; details: insulin reduction, turbidity at 650 nm, 60 min incubation at 37° C.; read-out: Inhibition of PDI A1 (EC 50)
T1 construct: purchased Mybiosource; host or cells: E. coli
T1 sequence (P07237 18-508, species assumed): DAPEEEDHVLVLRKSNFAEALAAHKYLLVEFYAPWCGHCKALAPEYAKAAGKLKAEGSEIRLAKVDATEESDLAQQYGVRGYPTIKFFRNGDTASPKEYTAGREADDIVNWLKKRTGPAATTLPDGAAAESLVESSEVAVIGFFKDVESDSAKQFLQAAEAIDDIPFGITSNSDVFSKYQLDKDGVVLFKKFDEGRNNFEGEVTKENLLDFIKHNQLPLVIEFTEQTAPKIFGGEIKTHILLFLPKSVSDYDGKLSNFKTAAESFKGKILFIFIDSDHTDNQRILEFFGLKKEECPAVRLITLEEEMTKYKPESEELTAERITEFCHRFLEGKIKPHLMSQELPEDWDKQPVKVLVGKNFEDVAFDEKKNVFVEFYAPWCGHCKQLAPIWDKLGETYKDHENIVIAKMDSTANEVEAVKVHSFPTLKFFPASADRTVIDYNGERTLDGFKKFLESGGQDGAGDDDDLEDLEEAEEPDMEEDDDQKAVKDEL
Description: The inhibitory effects compounds of invention on activity of PDI A1 was assess based on the insulin turbidometric assay. Enzymatic activity of PDIA1 was confirmed by measuring the turbidity increase at 650 nm due to insulin reduction. The assay mixture was prepared by addition 10 ug/ml PDIA1 (E.coli recombinant protein; Mybiosource), 0.1 mM phosphate buffer (pH7.6), 1 mM EDTA, 0.087 mM DTT and with or without tested compound and was incubated for 60 min, at 37° C. Reaction was started by addition insulin and DTT. Final concentration of insulin and DTT in assay mixture was 0.15 mM and 0.174 mM, respectively. Turbidity was detected at 650 nm against reference samples without PDI A1s. The measurements were performed at 650 nm using 120-s recordings.

[11] = tested on: MDA-MB-231 (human mammary breast adenocarcinoma); test: MTT antiproliferative assay, 48 h; type: cell-based; details: Homo sapiens, MDA-MB-231, 48-hour exposition, read-out: Cytotoxicity, IC50, µM MDA-MB-231
Description: as §5

[12] = tested on: HT-1080 (human fibrosarcoma); test: MTT antiproliferative assay, 48 h; type: cell-based; details: 48-hour exposition, read-out: Cytotoxicity, IC50, µM HT-1080
Description: as §5

[13] = tested on: Caco-2 (human colon adenocarcinoma); test: MTT antiproliferative assay, 48 h; type: cell-based; details: Homo sapiens, Caco-2, 48-hour exposition, read-out: Cytotoxicity, IC50, µM CaCo-2
Description: as §5

[14] = 200 nM estradiol, read-out: IC50 [µg/ml] MDA-MB-231 + estradiol
[15] = not pretreated with estradiol, read-out: IC50 [µg/ml] MDA-MB-231 normal
[16] = 200 nM estradiol, read-out: IC50 [µg/ml] MCF-7 + estradiol
[17] = not pretreated with estradiol, read-out: IC50 [µg/ml] MCF-7 normal

O=C(C1CC1)N1CCN(Cn2sc3ccccc3c2=O)CC1 [LOC14, reference compound]
IC50 [µg/ml] HT-29 normal [1]: 12.6 ± 8.4 µg/mL (≈ 39.7 µM)
IC50 [µg/ml] Caco-2 normal [2]: 9.1 ± 3.4 µg/mL (≈ 28.7 µM)
IC50 [µg/ml] MDA-MB-231 hypoxia [3]: 2.6 ± 0.5 µg/mL (≈ 8.19 µM)
IC50 [µg/ml] MDA-MB-231 normal [3]: 2.8 ± 0.4 µg/mL (≈ 8.82 µM)
IC50 [µg/ml] MCF-7 hypoxia [4]: 3.9 ± 0.3 µg/mL (≈ 12.3 µM)
IC50 [µg/ml] MCF-7 normal [4]: 4.4 ± 0.9 µg/mL (≈ 13.9 µM)

COc1ccc(N2C(=O)/C(=C\c3ccc([N+](=O)[O-])s3)SC2=S)cc1 [CCF642, reference compound]
IC50 [µg/ml] HT-29 normal [1]: 0.4 ± 0.05 µg/mL (≈ 1.06 µM)
IC50 [µg/ml] Caco-2 normal [2]: 0.4 ± 0.1 µg/mL (≈ 1.06 µM)
IC50 [µg/ml] MDA-MB-231 hypoxia [3]: 0.3 ± 0.2 µg/mL (≈ 0.793 µM)
IC50 [µg/ml] MDA-MB-231 normal [3]: 0.3 ± 0.1 µg/mL (≈ 0.793 µM)
IC50 [µg/ml] MCF-7 hypoxia [4]: 0.6 ± 0.6 µg/mL (≈ 1.59 µM)
IC50 [µg/ml] MCF-7 normal [4]: 0.7 ± 0.5 µg/mL (≈ 1.85 µM)

CCCCCCc1ccc(S(=O)(=O)N2CC2C(=O)OC)cc1 (stereo not shown) [Compound C-3287, Methyl 1-(4-hexylphenyl)sulfonylaziridine-2-carboxylate]
IC50 [5, 14]: 23.8 ± 2.3 µg/mL
IC50 [5, 15]: 6.4 ± 0.8 µg/mL (≈ 19.7 µM)
Change of antiproliferative activity towards MDA-MB-231 during simultaneous incubation with estradiol [5]: slight decrease of antiproliferative activity
Selectivity index (SI): IC50 of MCF-10A/ IC50 of MCF-7 [6]: 1.10
IC50 [6, 16]: 29.3 ± 4.1 µg/mL
IC50 [6, 17]: 31.3 ± 0.6 µg/mL (≈ 96.2 µM)
IC50 [7]: 31.5 ± 4.9 µg/mL (≈ 96.8 µM)
IC50 [8]: 0.5 ± 0.3 µg/mL (≈ 1.54 µM)
IC50 [9]: 123 ± 17 µM
EC50 [10]: 0.05 µM

CCCCCCc1ccc(S(=O)(=O)N2CC2C(=O)NC)cc1 (stereo not shown) [Compound C-3380, 1-(4-Hexylphenyl)sulfonyl-N-methyl-aziridine-2-carboxamide]
IC50 [5, 14]: 26.3 ± 2.5 µg/mL
IC50 [5, 15]: 26.1 ± 1 µg/mL (≈ 80.4 µM)
Selectivity index (SI): IC50 of MCF-10A/ IC50 of MCF-7 [6]: 0.75
IC50 [6, 16]: 26.3 ± 4.3 µg/mL
IC50 [6, 17]: 25.5 ± 2.3 µg/mL (≈ 78.6 µM)
IC50 [7]: 34.6 ± 2.2 µg/mL (≈ 107 µM)
IC50 [8]: 5.3 ± 2.8 µg/mL (≈ 16.3 µM)

CCCCCCc1ccc(S(=O)(=O)N2CC2C(N)=O)cc1 (stereo not shown) [Compound C-3389, 1-(4-Hexylphenyl)sulfonylaziridine-2-carboxamide]
IC50 [5, 14]: 28 ± 1.7 µg/mL
IC50 [5, 15]: 23.2 ± 1 µg/mL (≈ 74.7 µM)
Change of antiproliferative activity towards MDA-MB-231 during simultaneous incubation with estradiol [5]: slight decrease of antiproliferative activity
Selectivity index (SI): IC50 of MCF-10A/ IC50 of MCF-7 [6]: 0.23
IC50 [6, 16]: 18.4 ± 4.3 µg/mL
IC50 [6, 17]: 26.7 ± 4.5 µg/mL (≈ 86 µM)
IC50 [7]: 31.2 ± 6.7 µg/mL (≈ 101 µM)
IC50 [8]: 2.8 ± 0.8 µg/mL (≈ 9.02 µM)
IC50 [11]: 32 ± 3 µM
IC50 [12]: 36 ± 3 µM
IC50 [13]: 49 ± 2 µM
IC50 [9]: 47 ± 6 µM
EC50 [10]: 0.03 µM

COC(=O)C1CN1S(=O)(=O)c1cccc2c(N(C)C)cccc12 (stereo not shown) [Compound C-3326, Methyl 1-[[5-(dimethylamino)-1-naphthyl]sulfonyl]aziridine-2-carboaylate]
IC50 [5, 14]: 17.7 ± 2.1 µg/mL
IC50 [5, 15]: 15.7 ± 3.1 µg/mL (≈ 47 µM)
Selectivity index (SI): IC50 of MCF-10A/ IC50 of MCF-7 [6]: 4.84
IC50 [6, 16]: 10.4 ± 2.4 µg/mL
IC50 [6, 17]: 5.4 ± 1.7 µg/mL (≈ 16.1 µM)
Change in sensitivity of MCF-7 after addition of estradiol ([6]; with estradiol versus without): slight decrease in sensitivity
IC50 [7]: 39.2 ± 6.5 µg/mL (≈ 117 µM)
IC50 [8]: 1.9 ± 0.6 µg/mL (≈ 5.68 µM)
IC50 [11]: 169 ± 20 µM
IC50 [12]: 100 ± 5 µM
IC50 [13]: 170 ± 20 µM
IC50 [9]: 349 ± 13 µM

NC(=O)C1CN1S(=O)(=O)c1cccnc1 (stereo not shown) [Compound C-3562, 1-(3-pyridylsulfonyl)aziridine-2-carboxamide]
melting point: 147 to 149 °C
IC50 [11]: 24 ± 2 µM
IC50 [12]: 31 ± 2 µM
IC50 [13]: 36 ± 6 µM
IC50 [9]: 57 ± 5 µM
EC50 [10]: 29 µM

COC(=O)C1CN1S(=O)(=O)c1ccc(F)cc1F (stereo not shown) [Compound C-3353, Methyl 1-(2,4-difluorophenyl)sulfonylaziridine-2-carboxylate]
IC50 [5, 14]: 25.7 ± 1.9 µg/mL
IC50 [5, 15]: 24.2 ± 2.6 µg/mL (≈ 87.3 µM)
Selectivity index (SI): IC50 of MCF-10A/ IC50 of MCF-7 [6]: 3.36
IC50 [6, 16]: 5.8 ± 1.3 µg/mL
IC50 [6, 17]: 6.2 ± 1.8 µg/mL (≈ 22.4 µM)
IC50 [7]: 35.9 ± 1.3 µg/mL (≈ 129 µM)
IC50 [8]: 2 ± 0.1 µg/mL (≈ 7.21 µM)
EC50 [10]: 5 µM

N.N.[Cl][Pt][Cl] [Cisplatin, reference compound]
IC50 [µg/ml] HT-29 normal [1]: 2.82 ± 0.6 µg/mL
IC50 [µg/ml] MDA-MB-231 hypoxia [3]: 3.1 ± 0.9 µg/mL
IC50 [µg/ml] MDA-MB-231 normal [3]: 3.2 ± 0.5 µg/mL
IC50 [µg/ml] MCF-7 hypoxia [4]: 1.3 ± 0.5 µg/mL
IC50 [µg/ml] MCF-7 normal [4]: 1.8 ± 0.3 µg/mL
